ChEMBL document CHEMBL1134985, “Design and synthesis of 6-substituted amino-4-oxa-1-azabicyclo[3,2,0]heptan-7-one derivatives as cysteine proteases inhibitors” (Bioorg Med Chem Lett, 2002)

What was measured:
Cathepsin B = Cathepsin B (Homo sapiens, UniProt P07858); test: In vitro Inhibitory activity against Cathepsin B cysteine protease by using Cbz-Phe-Arg-AMC
Cathepsin S = Cathepsin S (Homo sapiens, UniProt P25774); test: In vitro Inhibitory activity against Cathepsin S cysteine protease by using Cbz-Val-Val-Arg-AMC
Cathepsin S, sequence (P25774 whole entry): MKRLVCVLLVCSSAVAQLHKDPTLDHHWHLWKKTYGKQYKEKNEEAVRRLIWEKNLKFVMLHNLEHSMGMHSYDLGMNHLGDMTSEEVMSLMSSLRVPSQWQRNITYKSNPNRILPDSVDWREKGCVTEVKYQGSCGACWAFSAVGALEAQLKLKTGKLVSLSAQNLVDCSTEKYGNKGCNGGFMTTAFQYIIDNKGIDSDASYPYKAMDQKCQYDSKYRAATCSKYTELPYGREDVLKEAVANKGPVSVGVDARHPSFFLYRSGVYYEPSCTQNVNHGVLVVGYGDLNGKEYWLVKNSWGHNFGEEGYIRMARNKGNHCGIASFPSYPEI

Cathepsin K = target: T1, Cathepsin K (Homo sapiens, UniProt P43235); test: In vitro Inhibitory activity against Cathepsin K cysteine protease by using Cbz-Phe-Arg-AMC
T1 sequence (P43235 whole entry): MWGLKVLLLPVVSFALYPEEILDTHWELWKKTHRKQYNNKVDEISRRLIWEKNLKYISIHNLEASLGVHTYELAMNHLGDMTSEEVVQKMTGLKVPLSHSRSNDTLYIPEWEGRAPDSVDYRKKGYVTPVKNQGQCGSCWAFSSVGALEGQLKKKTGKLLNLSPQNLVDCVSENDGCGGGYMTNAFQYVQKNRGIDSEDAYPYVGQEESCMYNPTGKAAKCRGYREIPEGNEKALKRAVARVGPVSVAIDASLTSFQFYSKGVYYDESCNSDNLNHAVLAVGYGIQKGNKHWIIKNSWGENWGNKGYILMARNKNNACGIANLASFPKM

Procathepsin L = target: T2, Procathepsin L (Rattus norvegicus, UniProt P07154); test: In vitro Inhibitory activity against Cathepsin L cysteine protease by using Cbz-Phe-Arg-AMC
T2 sequence (P07154 whole entry): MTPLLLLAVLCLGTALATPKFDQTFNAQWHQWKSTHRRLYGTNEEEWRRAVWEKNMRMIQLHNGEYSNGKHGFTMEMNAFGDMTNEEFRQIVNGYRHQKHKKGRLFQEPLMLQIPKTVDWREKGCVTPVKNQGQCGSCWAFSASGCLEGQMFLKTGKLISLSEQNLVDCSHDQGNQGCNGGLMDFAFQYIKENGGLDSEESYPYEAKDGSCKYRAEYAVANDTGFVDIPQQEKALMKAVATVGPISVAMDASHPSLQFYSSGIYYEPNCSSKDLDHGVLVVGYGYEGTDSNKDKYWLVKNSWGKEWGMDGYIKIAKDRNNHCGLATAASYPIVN

| SMILES | IC50 (Cathepsin B) [nM] | IC50 (Cathepsin S) [nM] | IC50 (Cathepsin K) [nM] | IC50 (Procathepsin L) [nM] |
| --- | --- | --- | --- | --- |
| O=C(N[C@@H](Cc1ccccc1)C(=O)N[C@@H]1C(=O)N2CCO[C@H]12)OCc1ccccc1 | 1760 | 430 | 1630 | 85 |
| CC(C)[C@H](NC(=O)OCc1ccccc1)C(=O)N[C@@H]1C(=O)N2CCO[C@H]12 | 30000 | 260 | 100 | 600 |

The remaining lines, values ahead:

| IC50 (Cathepsin B) [nM] | IC50 (Cathepsin S) [nM] | IC50 (Cathepsin K) [nM] | IC50 (Procathepsin L) [nM] | SMILES |
| --- | --- | --- | --- | --- |
| > 50000 |  |  | 1830 | O=C(N[C@H](C(=O)N[C@@H]1C(=O)N2CCO[C@H]12)c1ccccc1)OCc1ccccc1 |
| 12200 | 77 | 5 | 4 | O=C(N[C@@H](Cc1ccccc1)C(=O)N[C@@H]1C(=O)N2CCO[C@@H]12)OCc1ccccc1 |
| > 50000 | > 2500 | > 2500 | 38000 | C[C@H](NC(=O)OCc1ccccc1)C(=O)N[C@@H]1C(=O)N2CCO[C@H]12 |
